Measurements as given in the RepoRT retention time repository.

Experiment: HILIC, Merck SeQuant ZIC-HILIC, 25 °C, 0.25 mL/min; A: water + 16 mM ammonium formate; B: acetonitrile + 0.1% formic acid, pH 3; gradient (min/%B) 0/97 2/97 10/70 15/10 17/10 18/97 25/97
Settings: stereoisomer not certain

SMILES | LC retention time [min]
CC12CCC(=O)C=C1CCC1C2C(O)CC2(C)C(C(=O)CO)CCC12 (centres undefined) [CORTICOSTERONE] | 1.74
Nc1ncccc1C(=O)O [2-Aminopyridine-3-carboxylic acid] | 8.8
CCCCCCCCCCCCCCCC(=O)OCC(O)COP(=O)([O-])OCC[N+](C)(C)C (centres undefined) [16-0_LysoPC] | 11.2
NC(C(=O)O)C(O)C(O)C(O)CO (centres undefined) [GLUCOSAMINATE] | 14.7
CCCCCCCCCCCCCCCCCCOCC(O)COP(=O)([O-])OCC[N+](C)(C)C (centres undefined) [C18_LysoPAF] | 11.3
Nc1ncnc2c1ncn2C1OC(COP(=O)(O)O)C(OP(=O)(O)O)C1O (centres undefined) [ADENOSINE 3'-5'-DIPHOSPHATE] | 14.9
CC(=O)C1C(=O)C=C(C)OC1=O (centres undefined) [Dehydroacetic acid] | 1.56
O=C(O)C(O)C(O)C(O)C(O)CO (centres undefined) [GLUCONATE] | 13.6
NC(CS)C(=O)NCC(=O)O (centres undefined) [CYS-GLY_2M] | 16.3
CCC(C)C(=O)C(=O)O (centres undefined) [3-METHYL-2-OXOVALERATE] | 1.73
NC(CCSCC(N)C(=O)O)C(=O)O (centres undefined) [CYSTATHIONINE] | 15.4
O=C(O)CCCCCCCCCCCO [OMEGA-HYDROXYDODECANOATE] | 1.7
CC(CCC(=O)O)C1CCC2C3C(=O)CC4CC(O)CCC4(C)C3CC(=O)C12C (centres undefined) [5b-cholanic acid-3a-OL-7-12-DIONE] | 1.92
Cn1c(=O)c2[nH]c(=O)[nH]c2n(C)c1=O [1-3-Dimethyluric acid] | 2.19
[NH3+]CC(=O)N1CCCC1C(=O)[O-] (centres undefined) [Gly-Pro] | 15
CSCCC(O)C(=O)O (centres undefined) [2-HYDROXY-4-(METHYLTHIO)BUTANOATE] | 1.99
CCCC(=O)[O-] [BUTANOATE] | 2.15
O=C(O)c1ccc(O)c(O)c1 [3-4-DIHYDROXYBENZOATE] | 2.14
NC(=O)NCCCC(N)C(=O)O (centres undefined) [CITRULLINE] | 14.5
O=C(O)c1cncc(O)c1 [5-Hydroxynicotinic acid] | 6.4
NC1C(O)OC(COS(=O)(=O)O)C(O)C1O (centres undefined) [GLUCOSAMINE 6-SULFATE] | 15.5

Other lines, results leading:

LC retention time [min] | SMILES
1.71 | COC(=O)CCCCC(=O)O [mono-Methyl adipate]
15.1 | OCC1OC(OCC2OC(OCC3OC(OC4(CO)OC(CO)C(O)C4O)C(O)C(O)C3O)C(O)C(O)C2O)C(O)C(O)C1O (centres undefined) [STACHYOSE]
10.3 | O=C1OC(C(O)CO)C(O)C1O [L-GULONOLACTONE]
16.5 | Cc1ncc(C[n+]2csc(CCOP(=O)([O-])OP(=O)(O)O)c2C)c(N)n1 [THIAMINE PYROPHOSPHATE]
11.1 | N[C@@H](Cc1ccccc1)C(=O)O [L-Phenylalanine]
2.15 | CNC(=O)c1cccnc1 [N methyl nicotinamide]
14.7 | NC(=O)c1ccc[n+](C2OC(COP(=O)([O-])O)C(O)C2O)c1 (centres undefined) [NICOTINAMIDE MONONUCLEOTIDE]
2.06 | O=C(O)Cc1c[nH]c2ccccc12 [INDOLE-3-ACETATE]
15 | NC(CCSSCCC(N)C(=O)O)C(=O)O (centres undefined) [HOMOCYSTINE]
13.9 | CNC(CCC(=O)O)C(=O)O (centres undefined) [N-METHYLGLUTAMATE]
13.3 | O=C(O)C(=O)CO [HYDROXYPYRUVATE]
9.91 | CCCCCCCCCCCCCCCC(O)C(N)CO (centres undefined) [SPHINGANINE]
14.2 | NC(=O)C[C@H](N)C(=O)O [L-Asparagine]
